In patent publication US10167262B2, “Herbicidal substituted 3-arylpyrazoles” (FMC CORPORATION, priority 2014, dated 2019):

Tests used:
Type in all cases: in vivo
[1] = test system: blackgrass (Alopecurus myosuroides); experiment: Test C pre-/postemergence greenhouse test, plant response rating 0-100; conditions: Alopecurus myosuroides, post-emergence, Postemergence
Summary of the method: (§1)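 Formulated in solvent with surfactant, test chemicals were sprayed on seeded loam/sand pots and, concurrently, on young plants 2–18 cm tall. Evaluation: visual, versus controls, day 13–15.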

[2] = test system: corn (Zea mays); experiment: as above; conditions: Zea mays, post-emergence, Postemergence
Summary of the method: as §1

[3] = test system: galium (catchweed bedstraw, Galium aparine); experiment: as above; conditions: Galium, post-emergence, Postemergence
Summary of the method: as §1

[4] = test system: johnsongrass (Sorghum halepense); experiment: as above; conditions: Sorghum halepense, post-emergence, Postemergence
Summary of the method: as §1

[5] = test system: lambsquarters (Chenopodium album); experiment: as above; conditions: Chenopodium album, post-emergence, Postemergence
Summary of the method: as §1

[6] = test system: large (Lg) crabgrass (Digitaria sanguinalis); experiment: as above; conditions: Digitaria sanguinalis, post-emergence, Postemergence
Summary of the method: as §1

[7] = test system: morningglory (Ipomoea coccinea); experiment: as above; conditions: Ipomoea, post-emergence, Postemergence
Summary of the method: as §1

[8] = test system: pigweed (Amaranthus retroflexus); experiment: as above; conditions: Amaranthus retroflexus, post-emergence, Postemergence
Summary of the method: as §1

[9] = test system: ragweed (common ragweed, Ambrosia elatior); experiment: as above; conditions: Ambrosia artemisiifolia, post-emergence, Postemergence
Summary of the method: as §1

[10] = test system: velvetleaf (Abutilon theophrasti); experiment: as above; conditions: Abutilon theophrasti, post-emergence, Postemergence
Summary of the method: as §1

[11] = test system: winter wheat (Triticum aestivum); experiment: as above; conditions: Triticum aestivum, post-emergence, Postemergence
Summary of the method: as §1

[12] = test system: yellow nutsedge (Cyperus esculentus); experiment: as above; conditions: Cyperus, post-emergence, Postemergence
Summary of the method: as §1

[13] = test system: windgrass (Apera spica-venti); experiment: Test C postemergence greenhouse test, plant response rating 0-100
Summary of the method: (§2)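 Each weed species was grown in potting medium and sprayed after emergence, when 2–18 cm tall. Ratings, made by eye relative to control pots, were recorded 13–15 days later using a scale where 0 is no effect.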

[14] = test system: winter barley (Hordeum vulgare); experiment: as above
Summary of the method: as §2

With `CCCn1cc(C(=O)c2ccccc2)c(-c2cc(Cl)cc(Cl)c2)n1` [Compound 61, [3-(3,5-dichlorophenyl)-1-propyl-1H-pyrazol-4-yl]phenylmethanone] the pest or weed control at 31 g/ha ([1]; 31 g ai/ha, read-out: Plant response rating (0 to 100), Blackgrass) was 0%, the pest or weed control at 62 g/ha ([1]; 62 g ai/ha, read-out: Plant response rating (0 to 100), Blackgrass) was 0% and the pest or weed control at 125 g/ha ([1]; 125 g ai/ha, read-out: Plant response rating (0 to 100), Blackgrass) was 0%. It also gave a pest or weed control at 250 g/ha ([1]; 250 g ai/ha, scale 0 to 100) of 0%, a plant injury at 31 g/ha ([2]; 31 g ai/ha) of 5% and a plant injury at 62 g/ha ([2]; 62 g ai/ha) of 5%. It also gave a plant injury at 125 g/ha ([2]; 125 g ai/ha) of 5%, a Corn plant response rating (crop injury, 0 = no effect, 100 = complete kill) at 250 g/ha ([2]; 250 g ai/ha, scale 0 to 100) of 5% and a pest or weed control at 31 g/ha ([3]; 31 g ai/ha, read-out: Plant response rating (0 to 100), Galium) of 0%. The pest or weed control at 62 g/ha ([3]; 62 g ai/ha, read-out: Plant response rating (0 to 100), Galium) was 0%, the pest or weed control at 125 g/ha ([3]; 125 g ai/ha, read-out: Plant response rating (0 to 100), Galium) was 0% and the pest or weed control at 250 g/ha ([3]; 250 g ai/ha, scale 0 to 100) was 0%. It also gave a pest or weed control at 62 g/ha ([4]; 62 g ai/ha, read-out: Plant response rating (0 to 100), Johnsongrass) of 10%, a pest or weed control at 125 g/ha ([4]; 125 g ai/ha, read-out: Plant response rating (0 to 100), Johnsongrass) of 10% and a pest or weed control at 250 g/ha ([4]; 250 g ai/ha, scale 0 to 100) of 10%. The pest or weed control at 62 g/ha ([5]; 62 g ai/ha, read-out: Plant response rating (0 to 100), Lambsquarters) was 40%, the pest or weed control at 125 g/ha ([5]; 125 g ai/ha, read-out: Plant response rating (0 to 100), Lambsquarters) was 55% and the pest or weed control at 250 g/ha ([5]; 250 g ai/ha, scale 0 to 100) was 55%. It also gave a pest or weed control at 31 g/ha ([6]; 31 g ai/ha, read-out: Plant response rating (0 to 100), Crabgrass, Large) of 5%, a pest or weed control at 62 g/ha ([6]; 62 g ai/ha, read-out: Plant response rating (0 to 100), Crabgrass, Large) of 5% and a pest or weed control at 125 g/ha ([6]; 125 g ai/ha, read-out: Plant response rating (0 to 100), Crabgrass, Large) of 5%. For the same compound, the pest or weed control at 250 g/ha ([6]; 250 g ai/ha, scale 0 to 100) was 5%, the pest or weed control at 62 g/ha ([7]; 62 g ai/ha, read-out: Plant response rating (0 to 100), Morningglory) was 0% and the pest or weed control at 125 g/ha ([7]; 125 g ai/ha, read-out: Plant response rating (0 to 100), Morningglory) was 0%. It also gave a pest or weed control at 250 g/ha ([7]; 250 g ai/ha, scale 0 to 100) of 0%, a pest or weed control at 62 g/ha ([8]; 62 g ai/ha, read-out: Plant response rating (0 to 100), Pigweed) of 100% and a pest or weed control at 125 g/ha ([8]; 125 g ai/ha, read-out: Plant response rating (0 to 100), Pigweed) of 100%. It also gave a pest or weed control at 250 g/ha ([8]; 250 g ai/ha, scale 0 to 100) of 100%, a pest or weed control at 62 g/ha ([9]; 62 g ai/ha, read-out: Plant response rating (0 to 100), Ragweed) of 10% and a pest or weed control at 125 g/ha ([9]; 125 g ai/ha, read-out: Plant response rating (0 to 100), Ragweed) of 40%. It also gave a pest or weed control at 250 g/ha ([9]; 250 g ai/ha, scale 0 to 100) of 40%, a pest or weed control at 62 g/ha ([10]; 62 g ai/ha, read-out: Plant response rating (0 to 100), Velvetleaf) of 40% and a pest or weed control at 125 g/ha ([10]; 125 g ai/ha, read-out: Plant response rating (0 to 100), Velvetleaf) of 75%. The pest or weed control at 250 g/ha ([10]; 250 g ai/ha, scale 0 to 100) was 75%, the plant injury at 62 g/ha ([11]; 62 g ai/ha, read-out: Plant response rating (0 to 100), Wheat) was 0% and the plant injury at 125 g/ha ([11]; 125 g ai/ha, read-out: Plant response rating (0 to 100), Wheat) was 0%. It also gave a plant injury at 250 g/ha ([11]; 250 g ai/ha, scale 0 to 100) of 0%, a pest or weed control at 62 g/ha ([12]; 62 g ai/ha, read-out: Plant response rating (0 to 100), Nutsedge, Yellow) of 0% and a pest or weed control at 125 g/ha ([12]; 125 g ai/ha, read-out: Plant response rating (0 to 100), Nutsedge, Yellow) of 5%. For the same compound, the pest or weed control at 250 g/ha ([12]; 250 g ai/ha, scale 0 to 100) was 5%, the “Plant response rating (0 to 100), Windgrass” value ([13]; 62 g ai/ha) was 0 and the “Plant response rating (0 to 100), Windgrass” value ([13]; 125 g ai/ha) was 0. The “Plant response rating, Windgrass” value ([13]; 250 g ai/ha, scale 0 to 100) was 0, the “Plant response rating (0 to 100), Barley” value ([14]; 31 g ai/ha) was 0 and the “Plant response rating (0 to 100), Barley” value ([14]; 62 g ai/ha) was 0. The “Plant response rating (0 to 100), Barley” value ([14]; 125 g ai/ha) was 0 and the “Plant response rating, Barley” value ([14]; 250 g ai/ha, scale 0 to 100) was 0.
